Patent US20240343694A1, “PYRIMIDINE DERIVATIVE, METHOD FOR PREPARING SAME, AND PHARMACEUTICAL COMPOSITION FOR PREVENTING OR TREATING CANCER COMPRISING SAME AS ACTIVE INGREDIENT” (KOREA RESERARCH INSTITUTE OF CHEMICAL TECHNOLOGY, priority 2021, published 2024)

How the values were obtained:
Format in all cases: biochemical
Conditions in all cases: recombinant enzyme, 37° C. for 2 hours
EGFR A763_Y764insFHEA = EGFR A763_Y764insFHEA (Homo sapiens (Human), UniProt P00533, INS763FHEA); experiment: HTRF inhibitory activity against EGFR mutant enzyme (EGFR A763_Y764insFHEA)
Sequence of EGFR A763_Y764insFHEA (P00533 other isoform, or with tags, fused parts or gaps del 1-694/ins FHEA behind 763 limits assumed): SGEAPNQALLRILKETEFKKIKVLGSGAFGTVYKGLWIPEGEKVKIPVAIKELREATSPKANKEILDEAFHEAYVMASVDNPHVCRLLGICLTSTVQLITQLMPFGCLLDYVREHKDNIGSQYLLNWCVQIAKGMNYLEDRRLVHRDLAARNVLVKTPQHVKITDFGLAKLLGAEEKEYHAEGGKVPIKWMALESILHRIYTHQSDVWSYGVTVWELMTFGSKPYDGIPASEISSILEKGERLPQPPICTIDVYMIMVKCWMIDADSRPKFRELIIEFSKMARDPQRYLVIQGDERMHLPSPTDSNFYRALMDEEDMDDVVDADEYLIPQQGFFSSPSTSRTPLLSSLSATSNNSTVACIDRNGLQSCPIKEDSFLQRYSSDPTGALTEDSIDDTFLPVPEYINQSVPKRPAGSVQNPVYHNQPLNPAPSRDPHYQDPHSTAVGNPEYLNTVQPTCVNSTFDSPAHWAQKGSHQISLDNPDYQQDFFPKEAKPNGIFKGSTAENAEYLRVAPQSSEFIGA
Procedure: (§1) The activity of the compounds of the present invention against EGFR mutant enzymes was measured using the HTRF system purchased from Cisbio as follows. For an EGFR mutant enzyme, the EGFR del19 enzyme was a recombinant protein purchased from Carna Biosciences, and the EGFR A763_Y764insFHEA enzyme was a recombinant protein purchased from SignalChem, respectively.
(§2) The composition of the assay buffer used for activity measurement was 50 mM tris-HCl pH 7.5, 100 mM NaCl, 7.5 mM MgCl2, 3 mM KCl, 0.01% tween 20, 0.1% BSA, and 1 mM DTT. An enzymatic reaction was performed using a peptide substrate labeled with ATP at a concentration of […] and biotin at a concentration of […]. The analysis of the inhibitory effect of the compounds on EGFR activity was performed according to the following method. • Component 1:4 μL of EGFR mutant enzyme • Component 2:2 μL of compound solution • Component 3:4 μL of ATP and a biotin labeled peptide
(§3) The enzyme reaction begins by first mixing component 1 and component 2 and then adding component 3 thereto. After the reaction at 37° C. for 2 hours, […] of a measurement solution consisting of streptavidin-XL665 and a europium-labeled anti-phosphotyrosine antibody purchased from Cisbio was added to the enzyme reaction solution and reacted at room temperature for 1 hour. Finally, the ratio of fluorescence values at 615 nm and 665 nm was measured using Perkin-Elmer's Envision instrument to calculate enzyme activity and confirm the inhibitory ability of the compounds. The measured values at 7 compound concentrations were analyzed using the Prism program (version 5.01, Graphpad Software, Inc.), and the IC50 (μM) values, which are measures of the compounds' inhibitory activity, were calculated.

HER2 A775_G776insYVMA = HER2 A775_G776insYVMA (Homo sapiens (Human), UniProt P04626, INS775YVMA); experiment: HTRF inhibitory activity against HER2 mutant enzyme
Sequence of HER2 A775_G776insYVMA (P04626 other isoform, or with tags, fused parts or gaps del 1-675/ins YVMA behind 775 limits assumed): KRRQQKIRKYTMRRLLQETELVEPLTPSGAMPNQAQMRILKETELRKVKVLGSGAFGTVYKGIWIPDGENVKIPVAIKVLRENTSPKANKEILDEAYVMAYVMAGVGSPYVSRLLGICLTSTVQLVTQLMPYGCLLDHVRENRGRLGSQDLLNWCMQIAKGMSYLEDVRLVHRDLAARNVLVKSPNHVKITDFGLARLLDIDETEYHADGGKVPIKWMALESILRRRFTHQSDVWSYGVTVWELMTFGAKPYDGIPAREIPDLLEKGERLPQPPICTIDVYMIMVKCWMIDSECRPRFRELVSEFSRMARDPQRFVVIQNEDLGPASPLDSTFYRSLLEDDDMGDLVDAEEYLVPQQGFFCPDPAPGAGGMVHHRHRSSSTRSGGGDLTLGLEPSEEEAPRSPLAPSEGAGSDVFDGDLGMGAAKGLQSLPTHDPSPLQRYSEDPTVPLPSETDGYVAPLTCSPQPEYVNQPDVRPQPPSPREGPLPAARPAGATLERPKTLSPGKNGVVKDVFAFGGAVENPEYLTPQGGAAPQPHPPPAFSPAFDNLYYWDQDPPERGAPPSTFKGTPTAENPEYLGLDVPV
Procedure: The activity of the compounds of the present invention against HER mutant enzymes was measured using the HTRF system purchased by Cisbio as follows. As a HER2 mutant enzyme, the HER2 A775_G776insYVMA mutant enzyme was used by purchasing a recombinant protein provided by Carna Biosciences.
as §2, with “mM DTT. In addition thereto, the enzymatic reaction” for “mM DTT. An enzymatic reaction”, “of the activity inhibitory effect” for “of the inhibitory effect”, “compounds on HER2 A775_G776insYVMA mutation was performed” for “compounds on EGFR activity was performed”, “μL of HER2 A775_G776insYVMA mutant enzyme” for “μL of EGFR mutant enzyme”
as §3, with “Finally, the ratio of fluorescence values at 615 nm and 665 nm was measured using Perkin-Elmer's Envision instrument to calculate enzyme activity and confirm the inhibitory ability of the compounds.” left out, “ability,” for “activity,”

EGFR del19 = EGFR del19 (Homo sapiens (Human), UniProt P00533, DEL746-750); experiment: HTRF inhibitory activity against EGFR mutant enzyme (EGFR del19)
Sequence of EGFR del19 (P00533 other isoform, or with tags, fused parts or gaps del 1-668/del 746-750 limits assumed): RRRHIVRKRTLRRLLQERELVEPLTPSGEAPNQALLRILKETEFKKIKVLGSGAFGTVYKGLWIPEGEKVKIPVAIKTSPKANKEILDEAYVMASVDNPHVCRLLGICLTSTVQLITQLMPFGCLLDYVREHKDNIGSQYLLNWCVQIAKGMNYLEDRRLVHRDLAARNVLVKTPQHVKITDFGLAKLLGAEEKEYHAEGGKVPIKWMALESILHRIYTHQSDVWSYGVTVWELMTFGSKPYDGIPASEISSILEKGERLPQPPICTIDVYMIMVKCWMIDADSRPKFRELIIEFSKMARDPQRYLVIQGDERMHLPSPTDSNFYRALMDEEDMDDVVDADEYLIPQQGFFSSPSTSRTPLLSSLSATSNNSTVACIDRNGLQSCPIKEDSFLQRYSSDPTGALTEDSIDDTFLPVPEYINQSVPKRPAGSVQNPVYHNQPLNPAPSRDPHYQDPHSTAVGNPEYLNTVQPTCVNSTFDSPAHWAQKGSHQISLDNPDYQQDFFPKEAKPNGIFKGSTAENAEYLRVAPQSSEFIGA
Procedure: as §1, §2, §3

| SMILES | IC50 (EGFR A763_Y764insFHEA) [nM] | IC50 (HER2 A775_G776insYVMA) [nM] | IC50 (EGFR del19) [nM] |
| --- | --- | --- | --- |
| C=CC(=O)Nc1cc(Nc2ncc(Cl)c(Nc3ccc4nccnc4c3NS(C)(=O)=O)n2)c(OC)cc1N(C)CCN(C)C [Example 69] | < 1 | 6 | < 1 |
| C=CC(=O)Nc1cc(Nc2ncc(Cl)c(Nc3ccccc3N3CCCS3(=O)=O)n2)c(OC)cc1N(C)CCN(C)C [Example 70, N-(5-((5-chloro-4-((2-(1,1-dioxidoisothiazolidin-2-yl)phenyl)amino)pyrimidin-2-yl)amino)-2-((2-(dimethylamino)ethyl)(methyl)amino)-4-methoxyphenyl)acrylamide] | 4 | 33 | < 1 |
| C=CC(=O)Nc1cc(Nc2ncc(Cl)c(Nc3ccccc3N3CCCCS3(=O)=O)n2)c(OC)cc1N(C)CCN(C)C [Example 71, N-(5-((5-chloro-4-((2-(1,1-dioxido-1,2-thiazinan-2-yl)phenyl)amino)pyrimidin-2-yl)amino)-2-((2-(dimethylamino)ethyl)(methyl)amino)-4-methoxyphenyl)acrylamide] | 5 | 61 | < 1 |
| C=CC(=O)Nc1cc(Nc2ncc(Cl)c(Nc3cccc4c3N(S(C)(=O)=O)CC4)n2)c(OC)cc1N(C)CCN1CCN(C)CC1 [Example 73, N-(5-((5-chloro-4-((1-(methylsulfonyl)indolin-7-yl)amino)pyrimidin-2-yl)amino)-4-methoxy-2-(methyl(2-(4-methylpiperazin-1-yl)ethyl)amino)phenyl)acrylamide] | < 1 | 5 | < 1 |
| C=CC(=O)Nc1cc(Nc2ncc(Cl)c(Nc3cccc4c3N(S(=O)(=O)CC)CC4)n2)c(OC)cc1N(C)CCN1CCCC1 [Example 75, N-(5-((5-chloro-4-((1-(ethylsulfonyl)indolin-7-yl)amino)pyrimidin-2-yl)amino)-4-methoxy-2-(methyl(2-(pyrrolidin-1-yl)ethyl)amino)phenyl)acrylamide] | < 1 | 3 | < 1 |
| C=CC(=O)Nc1cc(Nc2ncc(Cl)c(Nc3cccc4c3N(S(C)(=O)=O)CC4)n2)c(OC)cc1OCCN1CCOCC1 [Example 77, N-(5-((5-chloro-4-((1-(methylsulfonyl)indolin-7-yl)amino)pyrimidin-2-yl)amino)-4-methoxy-2-(2-morpholinoethoxy)phenyl)acrylamide] | < 1 | 2 | < 1 |
| C=CC(=O)Nc1cc(Nc2ncc(Cl)c(Nc3cccc4c3N(S(C)(=O)=O)CC4)n2)c(OC)cc1OCCN1CCCCC1 [Example 78, N-(5-((5-chloro-4-((1-(methylsulfonyl)indolin-7-yl)amino)pyrimidin-2-yl)amino)-4-methoxy-2-(2-(piperidin-1-yl)ethoxy)phenyl)acrylamide] | < 1 | 3 | < 1 |
| C=CC(=O)Nc1cc(Nc2ncc(Cl)c(Nc3cccc4c3N(S(=O)(=O)CC)CC4)n2)c(OC)cc1N(C)CCN1CCC1 [Example 81, N-(2-((2-(azetidin-1-yl)ethyl)(methyl)amino)-5-((5-chloro-4-((1-(ethylsulfonyl)indolin-7-yl)amino)pyrimidin-2-yl)amino)-4-methoxyphenyl)acrylamide] | < 1 | < 1 | < 1 |

Results, then the compound that gave them:

| IC50 (EGFR A763_Y764insFHEA) [nM] | IC50 (HER2 A775_G776insYVMA) [nM] | IC50 (EGFR del19) [nM] | SMILES |
| --- | --- | --- | --- |
| < 1 | 6 | < 1 | C=CC(=O)Nc1cc(Nc2ncc(Cl)c(Nc3ccc(C)c(C)c3NS(C)(=O)=O)n2)c(OC)cc1N(C)CCN(C)C [Example 44, N-(5-((5-chloro-4-((3,4-dimethyl-2-(methylsulfonamido)phenyl)amino)pyrimidin-2-yl)amino)-2-((2-(dimethylamino)ethyl)(methyl)amino)-4-methoxyphenyl)acrylamide] |
| < 1 | 30 | < 1 | C=CC(=O)Nc1cc(Nc2ncc(C(=O)OC)c(Nc3cccc4c3N(S(C)(=O)=O)CCC4)n2)c(OC)cc1N(C)CCN(C)C [Example 51, methyl 2-((5-acrylamido-4-((2-(dimethylamino)ethyl)(methyl)amino)-2-methoxyphenyl)amino)-4-((1-(methylsulfonyl)-1,2,3,4-tetrahydroquinolin-8-yl)amino)pyrimidin-5-carboxylate] |
| < 1 | 4 | < 1 | C=CC(=O)Nc1cc(Nc2ncc(C(=O)OC(C)C)c(Nc3cccc4c3N(S(C)(=O)=O)CCC4)n2)c(OC)cc1N(C)CCN(C)C [Example 52, isopropyl 2-((5-acrylamido-4-((2-(dimethylamino)ethyl)(methyl)amino)-2-methoxyphenyl)amino)-4-((1-(methylsulfonyl)-1,2,3,4-tetrahydroquinolin-8-yl)amino)pyrimidin-5-carboxylate] |
| < 1 | 10 | < 1 | C=C(F)C(=O)Nc1cc(Nc2ncc(Cl)c(Nc3cccc4c3N(S(C)(=O)=O)CCC4)n2)c(OC)cc1N(C)CCN(C)C [Example 54, N-(5-((5-chloro-4-((1-(methylsulfonyl)-1,2,3,4-tetrahydroquinolin-8-yl)amino)pyrimidin-2-yl)amino)-2-((2-(dimethylamino)ethyl)(methyl)amino)-4-methoxyphenyl)-2-fluoroacrylamide] |
| < 1 | 10 | < 1 | C=CC(=O)Nc1cc(Nc2ncc(C(=O)OC)c(Nc3cccc4c3N(S(C)(=O)=O)CC4)n2)c(OC)cc1N(C)CCN(C)C [Example 60, methyl 2-((5-acrylamido-4-((2-(dimethylamino)ethyl)(methyl)amino)-2-methoxyphenyl)amino)-4-((1-(methylsulfonyl)indolin-7-yl)amino)pyrimidin-5-carboxylate] |
| < 1 | 81 | < 1 | C=CC(=O)Nc1cc(Nc2ncc(Cl)c(Nc3cccc4ccn(S(C)(=O)=O)c34)n2)c(OC)cc1N(C)CCN(C)C [Example 67, N-(5-((5-chloro-4-((1-(methylsulfonyl)-1H-indol-7-yl)amino)pyrimidin-2-yl)amino)-2-((2-(dimethylamino)ethyl)(methyl)amino)-4-methoxyphenyl)acrylamide] |
| < 1 | 6 | < 1 | C=CC(=O)Nc1cc(Nc2ncc(Cl)c(Nc3ccc4nccnc4c3N(C)S(C)(=O)=O)n2)c(OC)cc1N(C)CCN(C)C [Example 68, N-(5-((5-chloro-4-((5-(N-methylmethylsulfonamido)quinoxalin-6-yl)amino)pyrimidin-2-yl)amino)-2-((2-(dimethylamino)ethyl)(methyl)amino)-4-methoxyphenyl)acrylamide] |
